The record followed here is patent US11795177B2, “Substituted quinoline analogs as aldehyde dehydrogenase 1A1 (ALDH1A1) inhibitors” (THE UNITED STATES OF AMERICA, AS REPRESENTED BY THE …, priority 2017, dated 2023).

For one test, the system named is MIA PaCa-2 cells. Put plainly: MIA PaCa2 cell-based assay (1,536-well high-content imaging ALDEFLUOR assay). Also on record: species or system human. The following applies: Homo sapiens, 0.5 h, ALDEFLUOR BAAA substrate 500 nM, 30 minutes. Put shortly: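 MIA PaCa-2 cells (1,000/well), plated overnight, given BAAA substrate (500 nM) plus Hoechst 33342 (0.5 nM), then compound (16-point, 1.4 nM–47.8 μM final; 0.5% DMSO). After 30 min at 37° C, ALDH activity imaged by high-content microscopy as BAA-retaining (FITC) cells versus Hoechst-stained nuclei.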

A further test deals with T1, ALDH1A1 enzyme (Homo sapiens, UniProt P00352).
T1 sequence (P00352 1-501): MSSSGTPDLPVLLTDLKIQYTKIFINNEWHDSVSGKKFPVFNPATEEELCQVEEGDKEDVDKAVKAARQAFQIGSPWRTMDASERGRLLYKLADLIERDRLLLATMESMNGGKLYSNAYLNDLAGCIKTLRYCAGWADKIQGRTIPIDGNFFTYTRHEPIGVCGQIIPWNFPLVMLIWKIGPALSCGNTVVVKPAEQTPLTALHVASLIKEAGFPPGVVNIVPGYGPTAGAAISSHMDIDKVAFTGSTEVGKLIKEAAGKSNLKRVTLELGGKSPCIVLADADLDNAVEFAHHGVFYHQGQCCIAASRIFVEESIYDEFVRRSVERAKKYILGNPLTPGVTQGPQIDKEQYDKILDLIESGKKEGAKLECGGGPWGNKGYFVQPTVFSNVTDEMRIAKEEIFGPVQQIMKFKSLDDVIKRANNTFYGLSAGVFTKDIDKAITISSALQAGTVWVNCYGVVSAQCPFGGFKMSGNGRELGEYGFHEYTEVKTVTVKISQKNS
Nature of the test: ALDH1A1 enzymatic assay (in vitro). In kind it is biochemical. Conditions: ALDH1A1 enzyme 20 nM, NAD+ 1 mM, propionaldehyde 80 μM; read-out: ALDH1A1 IC50. As for the experimental part:
Example 358. ALDH1A1 Enzymatic Assay (In Vitro Assay)
3 μL of ALDH1A1 enzyme (final concentration 20 nM) or assay buffer (100 mM HEPES pH 7.5 with 0.01% Tween 20) were dispensed into a 1,536-well solid-bottom black plate (Greiner Bio One, Monroe, N.C.) followed by pin-tool transfer (23 nL) of candidate inhibitors (final concentration range 968 pM to 57.2 μM) and control (Bay 11-7085, final concentration range 1.31 nM to 2.86 μM). Samples were incubated (RT, protected from light) for 15 minutes followed by a 1 μL substrate addition of NAD^+ and Propionaldehyde (final concentrations of 1 mM and 80 μM, respectively). Plates were centrifuged at 1,000 rpm for 15 seconds, then read in kinetic mode on a ViewLux High-throughput CCD imager (Perkin-Elmer) equipped with standard UV fluorescence optics (340 nm excitation, 450 nm emission) for 10 minutes. The change in fluorescence intensity over the 10-minute reaction period was normalized against no-inhibitor and no-enzyme controls and the resulting percent inhibition data were fitted for biological activity.

SMILES strings stand for the structures. Structures can show the parent of a compound that is named as a salt.

In general, IC50 refers to the point on the concentration scale where inhibition reaches its midpoint. As to `N#CC1(c2ccc(-c3c(C(=O)N4CC5(CC(O)C5)C4)cnc4ccc(F)cc34)cc2)CC1` [Cpd. 335, 1-(4-(6-fluoro-3-(6-hydroxy-2-azaspiro[3.3]heptane-2-carbonyl)quinolin-4-yl)phenyl)cyclopropane-1-carbonitrile], the IC50 in the test with MIA PaCa-2 cells was 1000 to 10000 nM; at ALDH1A1 enzyme it was less than 500 nM.

With `N#CC1(c2ccc(-c3c(C(=O)N[C@H]4C[C@H](O)C4)cnc4ccc(F)cc34)cc2)CC1` [Cpd. 336, 4-(4-(1-cyanocyclopropyl)phenyl)-6-fluoro-N-((1R,3R)-3-hydroxycyclobutyl)quinoline-3-carboxamide], the IC50 is 500 to 1000 nM in the test with MIA PaCa-2 cells and less than 500 nM at ALDH1A1 enzyme.

Regarding `N#CC1(c2ccc(-c3c(C(=O)N4CCC(O)CC4)cnc4ccc(F)cc34)cc2)CC1` [Cpd. 337, 1-(4-(6-fluoro-3-(4-hydroxypiperidine-1-carbonyl)quinolin-4-yl)phenyl)cyclopropane-1-carbonitrile], the IC50 in the test on MIA PaCa-2 cells was 1000 to 10000 nM; at ALDH1A1 enzyme, less than 500 nM.

Regarding `N#CC1(c2ccc(-c3c(C(=O)N[C@H]4CC[C@H](O)CC4)cnc4ccc(F)cc34)cc2)CC1` [Cpd. 338, 4-(4-(1-cyanocyclopropyl)phenyl)-6-fluoro-N-((1R,4R)-4-hydroxycyclohexyl)quinoline-3-carboxamide], the IC50 in the test with MIA PaCa-2 cells and on ALDH1A1 enzyme was less than 500 nM throughout.

Take `CN(C)C(=O)Cn1cc(NC(=O)c2cnc3ccc(F)cc3c2N2CCC(C#N)(c3ccccc3)CC2)cn1` [Cpd. 339, 4-(4-cyano-4-phenylpiperidin-1-yl)-N-(1-(2-(dimethylamino)-2-oxoethyl)-1H-pyrazol-4-yl)-6-fluoroquinoline-3-carboxamide]: the IC50 in the test on MIA PaCa-2 cells and on ALDH1A1 enzyme was less than 500 nM throughout.

Consider `N#CC1(O)CCN(C(=O)c2cnc3ccc(F)cc3c2-c2ccc(C3(C#N)CC3)cc2)CC1` [Cpd. 340, 1-(4-(4-(1-cyanocyclopropyl)phenyl)-6-fluoroquinoline-3-carbonyl)-4-hydroxypiperidine-4-carbonitrile], for which the results for the IC50 in the test with MIA PaCa-2 cells and on ALDH1A1 enzyme were 1000 to 10000 nM and less than 500 nM, respectively.

Regarding `N#CC1(O)CCN(C(=O)c2cnc3ccc(F)cc3c2N2CCC(C#N)(c3ccccc3)CC2)CC1` [Cpd. 341, 1-(3-(4-cyano-4-hydroxypiperidine-1-carbonyl)-6-fluoroquinolin-4-yl)-4-phenylpiperidine-4-carbonitrile], the IC50 was 500 to 1000 nM with MIA PaCa-2 cells and less than 500 nM at ALDH1A1 enzyme.

With `N#CC1(c2ccc(-c3c(C(=O)Nc4cnn(CC(N)=O)c4)cnc4ccc(F)cc34)cc2)CC1` [Cpd. 342, N-(1-(2-amino-2-oxoethyl)-1H-pyrazol-4-yl)-4-(4-(1-cyanocyclopropyl)phenyl)-6-fluoroquinoline-3-carboxamide], the IC50 was 500 to 1000 nM in the test with MIA PaCa-2 cells and less than 500 nM on ALDH1A1 enzyme.

Regarding `N#CC1(c2ccc(-c3c(C(=O)Nc4cnn(CCO)c4)cnc4ccc(F)cc34)cc2)CC1` [Cpd. 343, 4-(4-(1-cyanocyclopropyl)phenyl)-6-fluoro-N-(1-(2-hydroxyethyl)-1H-pyrazol-4-yl)quinoline-3-carboxamide], the IC50 with MIA PaCa-2 cells and on ALDH1A1 enzyme was less than 500 nM throughout.

On to `N#CC1(c2ccc(-c3c(C(=O)Nc4cnn(CC(=O)NC5CC5)c4)cnc4ccc(F)cc34)cc2)CC1` [Cpd. 344, 4-(4-(1-cyanocyclopropyl)phenyl)-N-(1-(2-(cyclopropylamino)-2-oxoethyl)-1H-pyrazol-4-yl)-6-fluoroquinoline-3-carboxamide], for which the figures for the IC50 with MIA PaCa-2 cells and at ALDH1A1 enzyme were 1000 to 10000 nM and less than 500 nM, respectively.

In the case of `N#CC1(c2ccccc2)CCN(c2c(C(=O)Nc3cnn(CCO)c3)cnc3ccc(F)cc23)CC1` [Cpd. 345, 4-(4-cyano-4-phenylpiperidin-1-yl)-6-fluoro-N-(1-(2-hydroxyethyl)-1H-pyrazol-4-yl)quinoline-3-carboxamide], the IC50 in the test with MIA PaCa-2 cells and on ALDH1A1 enzyme was less than 500 nM in each case.

Regarding `CN(C)C(=O)Cn1cc(NC(=O)c2cnc3ccc(F)cc3c2-c2ccc(C3(C#N)CC3)cc2)cn1` [Cpd. 346, 4-(4-(1-cyanocyclopropyl)phenyl)-N-(1-(2-(dimethylamino)-2-oxoethyl)-1H-pyrazol-4-yl)-6-fluoroquinoline-3-carboxamide], the values for the IC50 in the test with MIA PaCa-2 cells and at ALDH1A1 enzyme were greater than 10000 nM and 1000 to 10000 nM, respectively.

Take `N#CC1(c2ccccc2)CCN(c2c(C(=O)Nc3cnn(CC(=O)NC4CC4)c3)cnc3ccc(F)cc23)CC1` [Cpd. 347, 4-(4-cyano-4-phenylpiperidin-1-yl)-N-(1-(2-(cyclopropylamino)-2-oxoethyl)-1H-pyrazol-4-yl)-6-fluoroquinoline-3-carboxamide]: the IC50 in the test with MIA PaCa-2 cells and at ALDH1A1 enzyme was less than 500 nM throughout.

With `N#CC1(c2ccccc2)CCN(c2c(C(=O)N3CCC(O)(C4CC4)CC3)cnc3ccc(F)cc23)CC1` [Cpd. 348, 1-(3-(4-cyclopropyl-4-hydroxypiperidine-1-carbonyl)-6-fluoroquinolin-4-yl)-4-phenylpiperidine-4-carbonitrile], the IC50 in the test on MIA PaCa-2 cells and on ALDH1A1 enzyme was less than 500 nM each time.

Turning to `CC1(O)CCN(C(=O)c2cnc3ccc(F)cc3c2N2CCC(C#N)(c3ccccc3)CC2)CC1` [Cpd. 349, 1-(6-fluoro-3-(4-hydroxy-4-methylpiperidine-1-carbonyl)quinolin-4-yl)-4-phenylpiperidine-4-carbonitrile], the IC50 in the test on MIA PaCa-2 cells and at ALDH1A1 enzyme was less than 500 nM in each case.

Consider `CC1(O)CCN(C(=O)c2cnc3ccc(F)cc3c2-c2ccc(C3(C#N)CC3)cc2)CC1` [Cpd. 350, 1-(4-(6-fluoro-3-(4-hydroxy-4-methylpiperidine-1-carbonyl)quinolin-4-yl)phenyl)cyclopropane-1-carbonitrile], for which the half-maximal inhibitory concentration (IC50) was 1000 to 10000 nM in the test with MIA PaCa-2 cells and less than 500 nM at ALDH1A1 enzyme.

For the compound `N#CC1(c2ccccc2)CCN(c2c(C(=O)N3CCC(O)(CO)CC3)cnc3ccc(F)cc23)CC1` [Cpd. 351, 1-(6-fluoro-3-(4-hydroxy-4-(hydroxymethyl)piperidine-1-carbonyl)quinolin-4-yl)-4-phenylpiperidine-4-carbonitrile], the IC50 in the test on MIA PaCa-2 cells and on ALDH1A1 enzyme was less than 500 nM in each case.

Take `N#CC1(c2ccc(-c3c(C(=O)N4CCC(O)(C5CC5)CC4)cnc4ccc(F)cc34)cc2)CC1` [Cpd. 353, 1-(4-(3-(4-cyclopropyl-4-hydroxypiperidine-1-carbonyl)-6-fluoroquinolin-4-yl)phenyl)cyclopropane-1-carbonitrile]: the IC50 is 1000 to 10000 nM with MIA PaCa-2 cells and less than 500 nM on ALDH1A1 enzyme.

Take `N#CC1(c2ccc(-c3c(C(=O)N4CCC(O)(CO)CC4)cnc4ccc(F)cc34)cc2)CC1` [Cpd. 354, 1-(4-(6-fluoro-3-(4-hydroxy-4-(hydroxymethyl)piperidine-1-carbonyl)quinolin-4-yl)phenyl)cyclopropane-1-carbonitrile]: the IC50 in the test with MIA PaCa-2 cells is 1000 to 10000 nM; on ALDH1A1 enzyme, less than 500 nM.

For the compound `CNC(=O)Cn1cc(NC(=O)c2cnc3ccc(F)cc3c2-c2ccc(C3(C#N)CC3)cc2)cn1` [Cpd. 355, 4-(4-(1-cyanocyclopropyl)phenyl)-6-fluoro-N-(1-(2-(methylamino)-2-oxoethyl)-1H-pyrazol-4-yl)quinoline-3-carboxamide], the IC50 with MIA PaCa-2 cells is 1000 to 10000 nM; at ALDH1A1 enzyme, less than 500 nM.

On to `CS(=O)(=O)N1CCN(C(=O)c2cnc3ccc(F)cc3c2N2CCC(C#N)(c3cccs3)CC2)CC1` [Cpd. 356, 1-(6-fluoro-3-(4-(methylsulfonyl)piperazine-1-carbonyl)quinolin-4-yl)-4-(thiophen-2-yl)piperidine-4-carbonitrile], for which the IC50 in the test with MIA PaCa-2 cells and on ALDH1A1 enzyme was less than 500 nM throughout.

In the case of `CS(=O)(=O)N1CCN(C(=O)c2cnc3ccc(F)cc3c2-c2ccc(/C(C#N)=C/C3CC3)cc2)CC1` [Cpd. 357, (Z)-3-cyclopropyl-2-(4-(6-fluoro-3-(4-(methylsulfonyl)piperazine-1-carbonyl)quinolin-4-yl)phenyl)acrylonitrile], the IC50 in the test with MIA PaCa-2 cells and at ALDH1A1 enzyme was less than 500 nM each time.

Take `COc1ccc2ncc(C(=O)N3CCC(OC)CC3)c(N3CCC4(CC3)OCCO4)c2c1` [Example 2, (6-methoxy-4-(1,4-dioxa-8-azaspiro[4.5]decan-8-yl)quinolin-3-yl)(4-methoxypiperidin-1-yl)methanone, TFA]: the IC50 in the test with MIA PaCa-2 cells is 1000 to 10000 nM; on ALDH1A1 enzyme, less than 500 nM.
